The values below come from ChEMBL document CHEMBL1158876, “New acylated sulfoglycolipids and digalactolipids and related known glycolipids from cyanobacteria with a potential to inhibit the reverse transcriptase of HIV-1” (J Nat Prod, 1997).

This experiment concerns the target Gag-Pol polyprotein (Human immunodeficiency virus type 1 group M subtype B (isolate BH10)(HIV-1)) (UniProt P03366). Kind of experiment: Inhibition of RNA dependent DNA polymerase activity of HIV1 BH10 recombinant reverse transcriptase p66/p51 expressed in Escherichia coli at 10 uM. The note with it: Human immunodeficiency virus 1.
For the molecule `CCCCCCCC/C=C\CCCCCCCC(=O)OC[C@H](CO[C@H]1O[C@H](CS(=O)(=O)O)[C@@H](O)[C@H](O)[C@H]1O)OC(=O)CCCCCCCCCCCCCCC`, the inhibition (usually the drop in the measured response relative to a control, in per cent) was found to be 100%.

Turning to `CCCCCCCCCCCCCCCC(=O)OC[C@H](CO[C@@H]1O[C@H](CO)[C@H](O)[C@H](O)C1O)OC(=O)CCCCCCCCCCCCCCC` (single isomer, unassigned), the inhibition came out at 8%.

As for `CCCCC/C=C\C/C=C\CCCCCCCC(=O)OC[C@H](CO[C@H]1O[C@H](CS(=O)(=O)O)[C@@H](O)[C@H](OC(=O)CCCCCCCCCCCCCCC)[C@H]1OC(=O)CCCCCCCCCCCCCCC)OC(=O)CCCCCCCCCCCCCCC`, the inhibition was 100%.

Consider `CCCCC/C=C\C/C=C\CCCCCCCC(=O)OC[C@H](CO[C@H]1O[C@H](CS(=O)(=O)O)[C@@H](O)[C@H](O)[C@H]1O)OC(=O)CCCCCCCCCCCCCCC`, for which the inhibition was found to be 100%.

Consider `CCCCC/C=C\C/C=C\CCCCCCCC(=O)OC[C@H](CO[C@@H]1O[C@H](CO)[C@H](O)[C@H](O)C1O)OC(=O)CCCCCCCCCCCCCCC` (single isomer, unassigned), for which the inhibition is 65%.

Consider `CCCCCCCC/C=C\CCCCCCCC(=O)OC[C@H](CO[C@@H]1O[C@H](CO)[C@H](O)[C@H](O)C1O)OC(=O)CCCCCCCCCCCCCCC` (single isomer, unassigned), for which the inhibition came to 33%.

Consider `CCCCCCCCCCCCCCCC(=O)OC[C@H](CO[C@H]1O[C@H](CS(=O)(=O)O)[C@@H](O)[C@H](O)[C@H]1O)OC(=O)CCCCCCCCCCCCCCC`, for which the inhibition was 100%.

As to `CCCCC/C=C\C/C=C\CCCCCCCC(=O)OC[C@H](CO[C@@H]1O[C@H](CO[C@H]2O[C@H](CO)[C@H](O)[C@H](OC(=O)CCCCCCCCCCCCCCC)[C@H]2O)[C@H](O)[C@H](O)[C@H]1O)OC(=O)CCCCCCCCCCCCCCC`, the inhibition stood at 42%.
